Assay results: US6677366B2, “Methods, compositions and articles for reducing or preventing the effects of inflammation” (QLT Inc., priority 1997, dated 2004)

How the values were obtained:
[1] = system: filtration bleb; conditions: previous rabbit studies; cited from earlier work
[2] = system: patients; conditions: topical ointment postoperatively; cited from earlier work
[3] = system: bleb scarring; conditions: in vivo; cited from earlier work
[4] = system: patients; conditions: human, in vivo; cited from earlier work
[5] = system: ocular fibroblasts; conditions: cited from earlier work
[6] = system: filtration bleb; test: Pilot light dosing of topical BPD-MA PDT during filtration surgery (Example 1); assay type: in vivo, rabbit
Procedure: Filtration surgery was performed on one eye in six normal rabbits. A Weck cell sponge was saturated with a 2 mg/mL aqueous solution of the photosensitizer benzoporphyrin derivative monoacid ring A (BPD-MA, also known as “BPD-verteporfin”). During surgery, the saturated Weck cell was used to apply BPD-MA topically for two minutes to the sclera and conjunctiva in the surgical field. After washing out the excess drug with BSS, both the sclera and conjunctiva were exposed to red light having a wavelength of about 690 nm, which was delivered by a light emitting diode (“LED”) placed at a distance of about 1 cm from the tissue to be irradiated. Each of the six rabbits used in this experiment received a different dose of light, specifically, 0, 3, 6, 12, 18 and 24 J/cm^2 over a 30-second to 4-minute time period. The treated rabbits were followed for 11-12 days after surgery by determining filtration bleb height, bleb vascularity (indicative of inflammation), and reduction in intraocular pressure (“IOP”). The data obtained on day 5 and day 11 are shown below in Tables 1A and 1B respectively.

[7] = system: filtration bleb; assay type: in vivo
Procedure: At day 7, one rabbit from each group and, following bleb failure, two rabbits from each group, were sacrificed to undergo histologic and transmission electron microscopic (“TEM”) analysis. Histologic evaluation was performed after first fixing the cadaver eyes with 10% buffered neutral formalin. The eyes were processed, sectioned, and then stained with hematoxylin and eosin, as well as Masson's Trichrome. The specimens were examined in a masked fashion by an independent observer.
Transmission electron microscopy was performed by fixing tissue samples in 2.5% glutaraldehyde buffered with 0.1 M cacodylate containing 7% sucrose. Tissues were post fixed for one hour with 2% osmium tetroxide and dehydrated through graded alcohol concentrations to 100% ethanol. The 2×5 mm tissue blocks were then infiltrated with catalyzed epoxy resin. Thick sections (0.5 μm) were cut and stained with toluidine blue and examined by light microscopy to determine appropriate areas. Thin section (80 nm) were then cut, picked up on copper grids, and stained with uranyl acetate and lead citrate for TEM evaluation. A Hitachi H7000 transmission electron microscope was used to examine these sections.

[8] = system: filtration bleb; test: Times of PDT administration, full thickness filtration surgery (Example 2); assay type: in vivo, rabbit
Procedure: The photosensitizer used in the example was prepared as follows: A liposomally formulated benzoporphyrin derivative, monoacid ring A, BPD-MA or BPD-verteporfin was supplied by QLT PhotoTherapeutics, Inc. as a lyophilized powder and was reconstituted with sterile distilled water shortly before use. The BPD was reconstituted to 1.98 mg/mL was used to saturate the 3 mm cut end of a Weck cell. In control groups, the Weck cell was saturated with basic salt solution (“BSS”).
On day 0, full thickness filtration surgery was performed on one randomly selected eye in 48 rabbits, 12 in each of four groups. In each rabbit, the untreated other eye served as a control. The filtration procedure was performed in the following manner: Each animal was anesthetized with a mixture of ketamine and xylazine. A wire speculum was used to separate the eyelids. […] Following creation of the fornix-based flap, the Weck cell saturated with BPD-MA (or BSS placebo) was placed on the sclera posterior to the limbus where the fistula was to be created. The conjunctiva was draped over the Weck Cell. The Weck cell thus rested between the conjunctiva and sclera, also coming into contact with the episclera and Tenon's capsule, for two minutes. The Weck cell was then removed and the area was irrigated with BSS. Instruments and gloves were also rinsed before entering the eye, and a 1.0 mm trephine was used to enter the anterior chamber.
The conjunctival flap was then secured to the limbus using two 7-0 vicryl sutures. […] The light source was used at a maximum output ([…]), which provided a total dosage of approximately 7.2 J.
A drop of tobramycin was then placed into each eye following surgery. Tobramycin and prednisolone acetate were instilled in both eyes four times a day for one week following surgery.
(§1) The control eye received the same photosensitizer and irradiation subconjunctivally as the surgical eye, but without a fistula being created. The control eye was used to test toxicity and as a basis for detecting a decrease in IOP for the surgical eye. The time at which the BPD-MA was applied was varied, as follows:
BPD treatment at 48 hours post surgery consisted of the application of the 3 mm cut end of a Weck cell saturated with a 2 mg/mL aqueous solution of BPD-MA (or placebo) laid on the conjunctiva over the filtration bleb for two minutes, followed by washing out the excess photosensitizer and exposure to red LED light having a wavelength of 688 nm for one minute.
(§2) Postoperatively at day 0 and every two days following surgery, the rabbits were examined with slit lamp biomicroscopy to evaluate filtration bleb extent, filtration bleb height, conjuctival erythema over the bleb, anterior chamber cell flare, and anterior chamber depth. Applanation tonometry to measure IOP following topical anesthesia. A subjective ocular discomfort assessment was also performed by determining animal comfort and eating habits, in accordance with the grading scale shown below:
Bleb survival was assessed by the extent and height of the bleb and by IOP as compared with the control eye. The degree of the inflammatory response was determined by erythema over the filtration bleb and was scored on a scale of 0-3. Rabbits were terminated when bleb failure was noted, i.e., when the intraocular pressure in the surgical eye equaled that of the control eye and the filtration bleb was flat.

[9] = system: control eye; test: Toxicity: control eye examination and adverse events (Example 2); assay type: in vivo, rabbit; conditions: for Fibrin clot within the first four days: resolved without sequelae by end of first week
Excerpt: as §1, §2
In FIGS. 3, 4 and 5, a statistical difference was observed between groups (P ,0.001). The bleb height and extent, as well as other slit lamp characteristics, were analyzed by a chi-square test. Adverse events also were analyzed by a chi-square test. A Cox Proportional Hazard Model was used to evaluate for parameters that most accurately predicted filtration bleb survival on each examination day.

[10] = postoperative day 5, irradiation time 30 seconds
[11] = postoperative day 5, irradiation time 1 minute
[12] = postoperative day 5, irradiation time 2 minutes
[13] = postoperative day 5, irradiation time 3 minutes
[14] = postoperative day 11, irradiation time 30 seconds
[15] = postoperative day 11, irradiation time 1 minute
[16] = postoperative day 11, irradiation time 2 minutes
[17] = postoperative day 11, irradiation time 3 minutes
[18] = day 7, eyes that received BPD at surgery

O=c1[nH]cc(F)c(=O)[nH]1 [5-Fluorouracil]
Filtration Bleb Survival (mean days ± SD) [1]: 19.5 ± 5.5 days | Filtration Bleb Survival [range] [1]: 14 to 25 days

Nc1ncnc2c1ncn2[C@@H]1O[C@H](CO)[C@@H](O)[C@@H]1O [Ara-A]
Filtration Bleb Survival (mean days ± SD) [1]: 15.2 ± 1.8 days

N#CCCN [BAPN, Beta-aminopropionitrite]
Patients with IOP kept below 22 mm Hg [2]: 74% | Potency in animal studies [3]: only limited potency

CC(C)(S)[C@@H](N)C(=O)O [D-penicillamine]
Potency in animal studies [3]: only limited potency

CO[C@@]12[C@H](COC(N)=O)C3=C(C(=O)C(C)=C(N)C3=O)N1C[C@@H]1N[C@@H]12 [Mitomycin-C]
Ocular hypotony (IOP less than 5 or 6 mm Hg), fraction of patients treated [4]: ⅓ | Probability of late-onset bleb leaks [4]: around 25% | Filtration Bleb Survival (mean days ± SD) [1]: 34.8 ± 28.8 days | Filtration Bleb Survival [range] [1]: 6 to 23.2 days

O=c1[nH]c(=O)n([C@H]2C[C@H](O)[C@@H](CO)O2)cc1F [floxuridine]
Potency relative to fluorouracil in long-term inhibition of ocular fibroblasts [5]: about 100 times

Bleomycin
Filtration Bleb Survival (mean days ± SD) [1]: 25.5 ± 14.5 days | Filtration Bleb Survival [range] [1]: 21 to 50 days

benzoporphyrin derivative monoacid ring A [BPD-MA]
Survival of the filtration bleb versus light dose ([6]; light doses 0-24 J/cm^2): longest in eyes treated with light at a medium range of doses | Bleb Height [6, 10]: Small | Bleb Vascularity [6, 10]: Vascular | IOP Decrease ([6]; postoperative day 5, irradiation time 30 seconds, 2 mg/mL topical 2 min, 690 nm light): Minimal | Bleb Height [6, 11]: Maximum | Bleb Vascularity [6, 11]: Avascular | IOP Decrease ([6]; postoperative day 5, irradiation time 1 minute, 2 mg/mL topical 2 min, 690 nm light): >20 mm Hg | Bleb Height [6, 12]: Maximum | Bleb Vascularity [6, 12]: Avascular' | IOP Decrease ([6]; postoperative day 5, irradiation time 2 minutes, 2 mg/mL topical 2 min, 690 nm light): 20 mm Hg | Bleb Height [6, 13]: Small | Bleb Vascularity [6, 13]: Vascular | IOP Decrease ([6]; postoperative day 5, irradiation time 3 minutes, 2 mg/mL topical 2 min, 690 nm light): 2.5 mm Hg | Bleb Vascularity ([6]; postoperative day 5, irradiation time 4 minutes): Vascular | IOP Decrease ([6]; postoperative day 5, irradiation time 4 minutes, 2 mg/mL topical 2 min, 690 nm light): 0-4 mm Hg | Bleb Height [6, 14]: Minimal | Bleb Vascularity [6, 14]: Vascular | IOP Decrease [6, 14]: 2.3 mm Hg | Bleb Height [6, 15]: Maximum | Bleb Vascularity [6, 15]: Avascular | IOP Decrease [6, 15]: >20 mm Hg | Bleb Height [6, 16]: Maximum | Bleb Vascularity [6, 16]: Avascular' | IOP Decrease [6, 16]: >20 mm Hg | Bleb Height [6, 17]: Low | Bleb Vascularity [6, 17]: Vascular | IOP Decrease [6, 17]: 3-4 mm Hg | Bleb outcome (rabbit sacrificed) ([6]; postoperative day 11, irradiation time 4 minutes): bleb failure | Light microscopy of filtering bleb ([7]; day 7, BPD only at day 2 (Group 3)): increased lymph channels in addition to the fibroblasts, but no vascular proliferation | Light microscopy of filtering bleb: fibroblasts, vessels, lymph channels [7, 18]: no fibroblasts, vascular increase or lymphocytic channel increase | Light microscopy of filtering bleb: lymphocytic response [7, 18]: mild lymphocytic response | Histology of eye fistulas ([7]; end of the study (three weeks postoperatively)): only a few lymphocytes and no proliferation of blood vessels at the fistula | Epithelium finding ([7]; rabbit, in vivo): thinned epithelium | Histologic and transmission electron microscopic analysis for toxicity ([7]; surgical or control eye): no evidence of toxicity or inflammation apart from the filtration site | Inflammatory response (erythema over the bleb) ([8]; BPD and light at relatively low doses, especially during surgery): prevented the development of inflammation | Bleb survival in comparison with placebo control or treatment only at 48 hours ([8]; BPD and light during surgery (Groups 2 and 4)): prolonged bleb survival | IOP (ANOVA) ([8]; BPD given intraoperatively, P=0.057): trend toward lower IOP | Mean (±SD) filtration bleb survival time ([8]; Group 2: BPD treatment during surgery, placebo 48 hours post surgery): 23.8 ± 12 days | Erythema over the bleb ([8]; Group 3 (BPD only at 48 hours), FIG. 5): higher inflammatory response | Mean (±SD) filtration bleb survival time ([8]; Group 3: placebo during surgery, BPD treatment 48 hours post surgery): 10.1 ± 9 days | Effect of second treatment with BPD and light at 48 hours ([8]; Group 4): did not appear to have any additional effect | Mean (±SD) filtration bleb survival time ([8]; Group 4: BPD treatment during surgery and 48 hours post surgery): 23.2 ± 8 days | Extent and height of the bleb ([8]; up to 12 days postoperatively, FIG. 3, FIG. 4): indicated the effectiveness of low-dose PDT treatment during surgery | Filtration bleb survival compared to previous rabbit studies ([8]; versus Table 2 literature values): prolonged the filtration bleb survival compared to normal controls, Ara-A and 5-fluorouracil | Life of the filtration bleb compared with mitomycin C studies ([8]; versus literature): longer that in some rabbits who received mitomycin C | Fibrin clot within the first four days ([9]; Group 2): three | Fibrin clot within the first four days ([9]; Group 3): three | Adverse events ([9]; all groups): few and not related specifically to the use of the photosensitizer | Anterior segment ocular exam of control eye, placebo versus BPD-treated ([9]; control eye, P>0.05): no differences between the placebo and BPD-treated eyes
